# Measured values: PMC7349874, “High Content Screening Using New U2OS Reporter Cell Models Identifies Harmol Hydrochloride as a Selective and Competitive Antagonist of the Androgen Receptor” (Cells, 2020)
# Counter-ions that a name gives are not always drawn. Like-named read-outs stand apart in the source and are kept apart here.
# Key:
# [1] = tested on: U2OS-ARE-Luc control cells; assay: Luciferase activity in U2OS-ARE-Luc control cells; details: validation, up to 3 µM, 16 h
# [2] = biological target: T1, full-length wild-type AR (hAR) (Homo sapiens, UniProt P10275); assay: Transactivation (luciferase) assay in U2OS-hAR-ARE-Luc reporter cells, screen and validation; assay type: cell-based; details: for Nature of AR inhibition (competitive or non-competitive): 1 nM versus 100 nM R1881; for Results of 1st screen on AR: 0.3, 1, 3, 10 µM, 16 h, hit = AR transcriptional activity changed by more than 50% dose-dependently, <20% effect in control cells
# T1 sequence (P10275 1-920): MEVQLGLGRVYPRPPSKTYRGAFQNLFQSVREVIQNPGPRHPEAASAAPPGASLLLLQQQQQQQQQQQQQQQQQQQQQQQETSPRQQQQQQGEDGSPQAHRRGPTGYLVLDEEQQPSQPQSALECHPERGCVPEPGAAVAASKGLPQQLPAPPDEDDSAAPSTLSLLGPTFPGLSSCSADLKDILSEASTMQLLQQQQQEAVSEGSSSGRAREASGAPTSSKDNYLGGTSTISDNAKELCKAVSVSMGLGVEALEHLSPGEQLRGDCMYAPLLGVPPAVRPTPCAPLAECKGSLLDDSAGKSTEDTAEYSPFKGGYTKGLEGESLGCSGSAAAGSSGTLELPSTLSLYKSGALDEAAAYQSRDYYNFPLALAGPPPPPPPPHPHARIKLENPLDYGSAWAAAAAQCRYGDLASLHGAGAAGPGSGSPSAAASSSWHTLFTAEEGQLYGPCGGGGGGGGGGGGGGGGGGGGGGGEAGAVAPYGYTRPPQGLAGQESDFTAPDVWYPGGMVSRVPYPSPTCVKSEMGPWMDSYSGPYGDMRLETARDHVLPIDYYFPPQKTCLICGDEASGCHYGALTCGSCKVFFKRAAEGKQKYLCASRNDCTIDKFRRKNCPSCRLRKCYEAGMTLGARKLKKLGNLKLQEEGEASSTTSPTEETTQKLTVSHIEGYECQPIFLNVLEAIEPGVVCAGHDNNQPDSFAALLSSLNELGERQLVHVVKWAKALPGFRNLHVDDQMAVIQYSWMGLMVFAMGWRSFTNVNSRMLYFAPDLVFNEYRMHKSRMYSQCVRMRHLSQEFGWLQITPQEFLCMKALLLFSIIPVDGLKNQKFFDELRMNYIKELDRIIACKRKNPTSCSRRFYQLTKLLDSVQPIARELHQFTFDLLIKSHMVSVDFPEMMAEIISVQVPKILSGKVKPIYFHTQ
# Protocol: U2OS-hAR-ARE(Rad9)-Luc and U2OS-hARv7-ARE(PB)-Luc were then used to screen the Prestwick phytochemical library®, containing 320 natural compounds, at four concentrations (0.3, 1, 3, 10 µM) in duplicate.
# LNCaP cells = assay: Spheroid growth (CellTiter-Glo), LNCaP; details: 7 days, 1 nM R1881
# Protocol: (§5) Spheroids were generated by seeding prostate cancer cells in non-adherent U-bottom 96-well plates in medium supplemented with 5% of charcoal stripped FBS. VCaP, LNCaP-FGC, DU145, or PC3 cells were seeded in duplicate at a density of 2000, 500, 600, and 600 cells per well, respectively. […] Cell death was first evaluated by the incubation of the spheroids with propidium iodide (1 mg/mL) for 30 min, and quantitation of red fluorescence was performed using a Celigo® imaging cytometer (Nexcelom Bioscience). […] Then, proliferation was assessed following cell lysis with the CellTiter-Glo® Luminescent Cell Viability Assay reagent (Promega, Charbonnière, France), according to the manufacturer protocol. Quantification of the luminescence was performed using a MicroBeta Wallac luminometer (PerkinElmer), and percent growth was calculated relative to DMSO treated cells.
# (§6) Spheroids were treated for 7 days, and cell death was evaluated by propidium iodide staining and fluorescence quantification, using the Celigo imaging system. Growth inhibition was then assessed by cell lysis with CellTiter-Glo, and quantification of the luminescence using a MicroBeta Wallac luminometer. Percent growth was calculated relative to dimethyl sulfoxide (DMSO) treated cells (n = 3 ± SEM).
# [3] = biological target: T2, mineralocorticoid receptor (MR) (Homo sapiens, UniProt P08235); assay: Transactivation assay in HG5LN MR cells; assay type: cell-based; details: 16 h, 1 nM aldosterone, highest concentrations used (>1 µM)
# T2 construct: expressed in transfected cells
# T2 sequence (P08235 726-964 limits assumed): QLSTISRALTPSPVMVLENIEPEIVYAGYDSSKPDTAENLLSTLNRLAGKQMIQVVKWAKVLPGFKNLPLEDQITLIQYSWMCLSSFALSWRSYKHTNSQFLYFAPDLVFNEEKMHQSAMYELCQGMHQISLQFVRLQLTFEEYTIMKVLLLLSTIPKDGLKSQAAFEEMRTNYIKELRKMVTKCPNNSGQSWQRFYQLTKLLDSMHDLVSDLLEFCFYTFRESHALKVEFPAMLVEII
# From the text: HG5LN MR and HG5LN PXR luciferase reporter cell lines were obtained by stable expression of individual ligand binding domains fused to GAL4 DNA binding domain in HG5LN (HeLa GAL4REx5-luciferase) cells, as previously described. HELN PR cells were obtained by stably expressing PR with the ERα DNA binding domain in HELN (HeLa ERE-luciferase) cells and HMLN GR cells were obtained by stable co-transfection of HeLa cells with a plasmid encoding for a glucocorticoid responsive gene (MMTV-Luc-SV-Neo) and a glucocorticoid receptor expressing plasmid, as previously described.
# Agonistic activities were evaluated in HMLN GR, HELN PR, HG5LN MR, and HG5LN PXR cells, using dexamethasone 100 nM, R5020 100 nM, aldosterone 100 nM, and SR12813 3 μM as a positive control, respectively. […] RU486 was used as a control antagonist for GR and PR, and spironolactone for MR.
# HMLN glucocorticoid receptor (GR), HG5LN mineralocorticoid receptor (MR), HELN progesterone receptor (PR) and HG5LN PXR cells were used to evaluate the antagonistic effect of the tested compounds on (A) the glucocorticoid receptor (GR), (B) the mineralocorticoid receptor (MR), (C) the progesterone receptor (PR) and (D) the agonistic activity towards the pregnane X receptor (PXR). […]
# [4] = tested on: AR target genes TMPRSS2, FKBP5, PSA; assay: RT-qPCR of AR target genes in VCaP cells; details: 3 µM, 24 h, 1 nM R1881
# Protocol: (§7) LNCaP and VCaP cells were seeded in 6-well plates (10^6 and 2 × 10^6 cells per well, respectively) and, 48 h later, complete medium was replaced by charcoal-stripped medium with 5% FBS. Cells were then treated for 24 h with the tested compounds, and RNA extraction was performed using the Quick RNA Miniprep kit (Zymo-Research, Irvine, CA, USA), according to the manufacturer’s protocol. Reverse transcription was performed with 0.5 µg total RNA using the SuperScript III reverse transcriptase kit (ThermoFisher, Waltham, MA, USA), according to the manufacturer’s protocol, in a final volume of 20 µL. The levels of genes transcripts were measured by real time PCR using a LightCycler 480 system (Roche Life Science, Penzberg, Germany) in the presence of SYBRGreen (SYBR® Premix Ex Taq^tm) and the following primers: FKBP5, sense 5′-[sequence]-3′; antisense 5′-[sequence]-3′; PSA, sense 5′-[sequence]-3′; antisense 5′-[sequence]-3′; TMPRSS2, sense 5′-[sequence]-3′, antisense 5′-[sequence]-3′; GR, sense 5′-[sequence]-3′, antisense 5′-[sequence]-3′; HPRT, sense 5′-[sequence]-3′; antisense 5′-[sequence]-3′; GAPDH, sense 5′-[sequence]-3′; antisense 5′-[sequence]-3′. Expression levels were evaluated with the ΔΔCt method and were normalized to GAPDH. Results are expressed as mRNA expression, relative to control (untreated cells), and are the mean ± SEM of 3 independent experiments.
# LNCaP spheroids = tested on: LNCaP spheroids
# Protocol: (§1) prostate cancer cells. GAPDH was used as a loading control.
# (§2) Spheroids were treated for 7 days with the indicated concentrations of each drug, stained with PI (1 mg/mL) for 30 min and […] was evaluated using the Celigo® imaging system. Results are expressed as mortality ratios as compared to untreated spheroids (set at 1). Each point represent s the m ean ± SEM of 3 […]
# (§3) Mortality (ratio/control)
# (§4) [Harmol Hydrochloride] (M)
# VCaP spheroids = tested on: VCaP spheroids
# Protocol: as §1, §2, §3, §4
# [5] = tested on: AR target genes TMPRSS2, FKBP5, PSA; assay: RT-qPCR of AR target genes in LNCaP cells; details: 3 µM, 24 h, 1 nM R1881
# Protocol: as §7
# [6] = parameters: method as in PMID 20398925; details: cited from earlier work
# VCaP cells = assay: Spheroid growth (CellTiter-Glo), VCaP; details: 7 days, 1 nM R1881
# Protocol: as §5, §6
# GR [7] = assay: GR expression (RT-qPCR and Western blot) in VCaP cells; details: 3 µM, 24 h, 1 nM R1881
# Protocol: (§8) LNCaP and VCaP cells were seeded in 6-well plates (10^6 and 2 × 10^6 cells per well, respectively) and, 48 h later, complete medium was replaced by charcoal-stripped medium with 5% FBS. Cells were then treated for 24 h with the tested compounds, and RNA extraction was performed using the Quick RNA Miniprep kit (Zymo-Research, Irvine, CA, USA), according to the manufacturer’s protocol. Reverse transcription was performed with 0.5 µg total RNA using the SuperScript III reverse transcriptase kit (ThermoFisher, Waltham, MA, USA), according to the manufacturer’s protocol, in a final volume of 20 µL. The levels of genes transcripts were measured by real time PCR using a LightCycler 480 system (Roche Life Science, Penzberg, Germany) in the presence of SYBRGreen (SYBR® Premix Ex Taq^tm) and the following primers: FKBP5, sense 5′-[sequence]-3′; antisense 5′-[sequence]-3′; PSA, sense 5′-[sequence]-3′; antisense 5′-[sequence]-3′; TMPRSS2, sense 5′-[sequence]-3′, antisense 5′-[sequence]-3′; GR, sense 5′-[sequence]-3′, antisense 5′-[sequence]-3′; HPRT, sense 5′-[sequence]-3′; antisense 5′-[sequence]-3′; GAPDH, sense 5′-[sequence]-3′; antisense 5′-[sequence]-3′. Expression levels were evaluated with the ΔΔCt method and were normalized to GAPDH. Results are expressed as mRNA expression, relative to control (untreated cells), and are the mean ± SEM of 3 independent experiments. […]
# GR [8] = assay: GR expression (RT-qPCR and Western blot) in LNCaP cells; details: 3 µM, 24 h, 1 nM R1881
# Protocol: as §8
compound,measurement,setting,value
Cc1c2ccncc2c(C)c2c1[nH]c1ccccc12 [ellipticine],Effect on luciferase activity in control cells,[1],no effect
same,Nature of AR inhibition (competitive or non-competitive),[2],non-competitive manner
same,Results of 1st screen on AR,[2],active inhibitors of AR transcriptional activity
same,Results of confirmatory screen (validation of AR inhibition),"[2]; six concentrations, absence or presence of 1 nM or 100 nM R1881",could impair the transcriptional activity of AR
COc1ccc2c(c1)[nH]c1c(C)nccc12 [Harmine hydrochloride],Effect on luciferase activity in control cells,[1],no effect
same,Results of confirmatory screen (validation of AR inhibition),[2],Confirmed
same,Nature of AR inhibition (competitive or non-competitive),[2],non-competitive manner
same,Results of 1st screen on AR,[2],Inhibition
same,Results of 1st screen on AR,[2]; listed as harmine,active inhibitors of AR transcriptional activity
same,Results of confirmatory screen (validation of AR inhibition),[2]; listed as harmine,could impair the transcriptional activity of AR
"CNC(=O)c1ccc(N2C(=S)N(c3ccc(C#N)c(C(F)(F)F)c3)C(=O)C2(C)C)cc1F [enzalutamide, reference compound]",Growth of LNCaP spheroids,LNCaP cells,"could inhibit the growth of VCaP and LNCaP cells, tough to a lesser extent"
same,Antagonistic activity towards MR,[3],small antagonistic activity
same,"R1881-mediated expression of AR target genes TMPRSS2, FKBP5, PSA",[4],more pronounced for enzalutamide than for harmol hydrochloride
same,Cell death (propidium iodide positive cells) versus untreated spheroids,LNCaP spheroids,did not significantly affect the number of propidium iodide positive cells
same,Cell death (propidium iodide positive cells) versus untreated spheroids,VCaP spheroids,did not significantly affect the number of propidium iodide positive cells
same,"R1881-mediated expression of AR target genes TMPRSS2, FKBP5, PSA",[5],more pronounced for enzalutamide than for harmol hydrochloride
same,Cmin required to saturate binding to AR,[6],10 to 30 µM
same,Growth of VCaP spheroids,VCaP cells,could inhibit the growth
same,Expression of GR at the mRNA and protein levels,GR [7],neither harmol nor enzalutamide treatment could significantly alter the expression of GR
same,Expression of GR at the mRNA and protein levels,GR [8],neither harmol nor enzalutamide treatment could significantly alter the expression of GR
NCCC(O)C(=O)NC1CC(N)C(OC2OC(CN)C(O)[C@H](O)[C@@H]2N)[C@H](OC2O[C@H](CO)[C@@H](O)[C@@H]2O)[C@@H]1O.O=S(=O)(O)O.O=S(=O)(O)O (stereo partly shown) [Butirosin disulfate salt],Results of 1st screen on AR,[2],No effect
CN(C)Cc1c[nH]c2ccccc12 [Gramine],Results of 1st screen on AR,[2],No effect
C[C@@H]1O[C@@H](O[C@H]2C(=O)c3c(O)cc(O)cc3O[C@@H]2c2ccc(O)c(O)c2)[C@H](O)[C@H](O)[C@H]1O [Astilbin],Results of 1st screen on AR,[2],No effect
COc1ccc2c(OC)c3ccoc3nc2c1OC [Skimmianine],Results of 1st screen on AR,[2],No effect
C[C@]12CC[C@H](O)C[C@H]1CC[C@@H]1[C@@H]2CC[C@]2(C)[C@@H](C3=CC(=O)OC3)CC[C@]12O [digitoxigenin],Results of 1st screen on AR,[2],active inhibitors of AR transcriptional activity
COc1ccc([C@@H]2CC(=O)c3c(O)cc(O[C@@H]4O[C@H](CO[C@@H]5O[C@@H](C)[C@H](O)[C@@H](O)[C@H]5O)[C@@H](O)[C@H](O)[C@H]4O)cc3O2)cc1O [Hesperidin],Results of 1st screen on AR,[2],No effect
CC1=C2C(=O)[C@H]3[C@@H](CC=C4C[C@@H](O)CC[C@@]43C)[C@@H]2CC[C@]12O[C@@H]1C[C@H](C)CN[C@H]1[C@H]2C [Jervine],Results of 1st screen on AR,[2],No effect
Cc1nccc2c1[nH]c1ccccc12 [Harmane hydrochloride],Results of confirmatory screen (validation of AR inhibition),[2],Not confirmed
same,Results of 1st screen on AR,[2],Inhibition
same,Results of 1st screen on AR,[2]; listed as harmane,active inhibitors of AR transcriptional activity
Foliosidine,Results of 1st screen on AR,[2],No effect
COc1ccc2c3c([nH]c2c1)C(C)=NCC3 [Harmaline hydrochloride dihydrate],Results of 1st screen on AR,[2],No effect
same,Results of 1st screen on AR,[2]; listed as harmaline,inactive
C[N+]1(C)CCC[C@H]1C(=O)[O-].Cl [Stachydrine hydrochloride],Results of 1st screen on AR,[2],No effect
